Values of other authors, collected in patent US7904011B2, “Temperature control unit and image forming apparatus including same” (Ricoh Company, Ltd., priority 2007, dated 2011).

Settings: in vivo

Compound	acute oral toxicity LD50 [mg/kg]
[Cl-].[Na+] [salt, reference compound]	3000
CC1COC(=O)O1 (stereo not drawn) [propylene carbonate]	29000
CCOCCOC(=O)CCC(=O)OCCOCC [diethoxyethyl succinate]	5000
